24 molecules from patent publication US20250051347A1, “BIFUNCTIONAL CHIMERIC HETEROCYCLIC COMPOUND AND USE THEREOF AS ANDROGEN RECEPTOR DEGRADER” (Hinova Pharmaceuticals, Inc., priority 2021, published 2025) can be followed below.

Each structure is given as a SMILES string. pIC50: −log10 of the molar value. Where two headings read alike, the source gives them in different places.

Assay [1] addresses T1, androgen receptor (AR) splicing variant AR-v7 (Homo sapiens, UniProt P10275).
T1 construct: The degradation activity of compounds on AR-v7 in 22RV1 cells; host or cells: 22RV1 cells
T1 sequence (P10275 1-644 isoform P10275-3): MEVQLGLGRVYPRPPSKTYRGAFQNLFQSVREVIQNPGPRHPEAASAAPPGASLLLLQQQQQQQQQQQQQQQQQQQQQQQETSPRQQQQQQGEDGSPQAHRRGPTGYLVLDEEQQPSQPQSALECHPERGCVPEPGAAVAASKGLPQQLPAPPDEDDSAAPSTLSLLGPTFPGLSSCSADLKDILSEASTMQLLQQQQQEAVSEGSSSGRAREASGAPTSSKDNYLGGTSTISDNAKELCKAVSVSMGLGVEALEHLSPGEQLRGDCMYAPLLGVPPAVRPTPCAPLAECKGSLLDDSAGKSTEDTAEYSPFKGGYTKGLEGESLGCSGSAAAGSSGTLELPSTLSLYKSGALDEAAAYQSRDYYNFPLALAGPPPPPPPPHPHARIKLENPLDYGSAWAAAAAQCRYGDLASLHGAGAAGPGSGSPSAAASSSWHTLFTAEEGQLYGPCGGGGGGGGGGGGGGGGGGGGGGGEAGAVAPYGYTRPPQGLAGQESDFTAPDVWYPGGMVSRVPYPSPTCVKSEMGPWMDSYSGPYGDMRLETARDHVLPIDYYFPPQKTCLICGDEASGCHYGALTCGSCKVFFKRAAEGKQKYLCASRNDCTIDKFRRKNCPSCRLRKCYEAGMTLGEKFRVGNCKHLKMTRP
Briefly: Degradation activity on androgen receptor splicing variant AR-v7 in 22RV1 cells (ELISA). In kind it is cell-based. The settings on record: AR-v7 degradation in 22RV1 cells, 48 h, class symbols. For orientation: An ELISA detects its analyte on a solid surface through an enzyme-linked reagent.

Assay [2] relates to 22RV1 cells. The settings on record: for IC50: Homo sapiens, 22Rv1, 144 h, read-out: 22RV1 IC50 (nM), 22RV1 cells, 6 days culture, CCK-8, OD 450 nm; for pIC50: read-out: 22RV1 IC50, 22RV1 cells, 6 days culture, CCK-8, OD 450 nm.

In general, DC50 refers to the midpoint of the concentration-degradation curve. Higher therefore signals a less potent degrader. As usually defined, the IC50 is the point on the concentration scale where inhibition reaches its midpoint. In the case of `CC(C)(c1ccc(Oc2ncnc(N3CC4(COC4)C3)n2)cc1)c1ccc(O[C@H]2C[C@H](Nc3ccc4c(c3)C(=O)N(C3CCC(=O)NC3=O)C4=O)C2)cc1` (stereo partly drawn) [Example 160], the 50% degradation concentration (DC50) in assay [1] was under 10 nM. Besides, the concentration for half-maximal inhibition (IC50) in assay [2] was found to be 8 nM.

Turning to `CC(C)(O)c1ccnc(Oc2ccc(C(C)(C)c3ccc(O[C@H]4C[C@H](Nc5ccc6c(c5)C(=O)N(C5CCC(=O)NC5=O)C6=O)C4)cc3)cc2)n1` (stereo partly drawn) [Example 161], the DC50 in assay [1] is under 10 nM. Also, the IC50 in assay [2] is 10 nM.

On to `CC(C)(O)c1cncc(Oc2ccc(C(C)(C)c3ccc(O[C@H]4C[C@H](Nc5ccc6c(c5)C(=O)N(C5CCC(=O)NC5=O)C6=O)C4)cc3)cc2)n1` (stereo partly drawn) [Example 162], for which the half-maximal degradation concentration (DC50) in assay [1] was under 10 nM. Besides, in assay [2], the half-maximal inhibitory concentration (IC50) was 10 nM.

On to `CC(C)(c1ccc(Oc2cc(-n3nccn3)ccn2)cc1)c1ccc(O[C@H]2C[C@H](Nc3ccc4c(c3)C(=O)N(C3CCC(=O)NC3=O)C4=O)C2)cc1` (stereo partly drawn) [Example 168], for which the 50% degradation concentration (DC50) in assay [1] fell in the range of 11 to 100 nM. Also, the IC50 in assay [2] came to 18 nM.

On to `CC(C)(c1ccc(Oc2cc(-n3ccnn3)ccn2)cc1)c1ccc(O[C@H]2C[C@H](Nc3ccc4c(c3)C(=O)N(C3CCC(=O)NC3=O)C4=O)C2)cc1` (stereo partly drawn) [Example 169], for which, in assay [1], the 50% degradation concentration (DC50) is under 10 nM. For the same molecule, the 50% inhibitory concentration (IC50) in assay [2] was 10 nM.

In the case of `CC(C)(c1ccc(Oc2nccc(-n3nccn3)n2)cc1)c1ccc(O[C@H]2C[C@H](Nc3ccc4c(c3)C(=O)N(C3CCC(=O)NC3=O)C4=O)C2)cc1` (stereo partly drawn) [Example 170, 5-(((1r,3r)-3-(4-(2-(4-((4-(2H-1,2,3-triazol-2-yl)pyrimidin-2-yl)oxy)phenyl)propan-2-yl)phenoxy)cyclobutyl)amino)-2-(2,6-dioxopiperidin-3-yl)isoindol-1,3-dione], in assay [1], the DC50 was under 10 nM. For the same molecule, in assay [2], the IC50 turned out to be 9 nM.

For the molecule `Cc1nnc(-c2cc(Oc3ccc(C(C)(C)c4ccc(O[C@H]5C[C@H](Nc6ccc7c(c6)C(=O)N(C6CCC(=O)NC6=O)C7=O)C5)cc4)cc3)ccn2)o1` (stereo partly drawn) [Example 172, 2-(2,6-dioxopyridin-3-yl)-5-(((1r,3r)-3-(4-(2-(4-((2-(5-methyl-1,3,4-oxadiazol-2-yl)pyridin-4-yl)oxy)phenyl)propan-2-yl)phenoxy)cyclobutyl)amino) isoindolin-1,3-dione], the DC50 in assay [1] is under 10 nM. In addition, in assay [2], the IC50 was 19 nM.

For `Cc1nc(-c2ccnc(Oc3ccc(C(C)(C)c4ccc(O[C@H]5C[C@@H](Nc6ccc7c(c6)C(=O)N(C6CCC(=O)NC6=O)C7=O)C5)cc4)cc3)n2)no1` (stereo partly drawn) [Example 173, 2-(2,6-dioxopiperidin-3-yl)-5-(((1s,3s)-3-(4-(2-(4-((4-(5-methyl-1,2,4-oxadiazol-3-yl)pyrimidin-2-yl)oxy)phenyl)propan-2-yl)phenoxy)cyclobutyl)amino)isoindolin-1,3-dione], the 50% degradation concentration (DC50) in assay [1] lay in the range of 11 to 100 nM. For the same molecule, the IC50 in assay [2] worked out at 13 nM.

Consider `CCC(CC)(c1ccc(Oc2ccc(C(C)=O)nn2)cc1)c1ccc(O[C@H]2C[C@H](Nc3ccc4c(c3)C(=O)N(C3CCC(=O)NC3=O)C4=O)C2)cc1` (stereo partly drawn) [Example 176, 5-(((1r,3r)-3-(4-(3-(4-((6-acetylpyridazine-3-yl)oxy)phenyl)pentan-3-yl)phenoxy)cyclobutyl)amino)-2-(2,6-dioxopiperidin-3-yl)isoindolin-1,3-dione], for which the DC50 in assay [1] is under 10 nM. The IC50 in assay [2] was determined as 2 nM.

The term pIC50 denotes −log10 of the IC50, conventionally taken in molar units. Consider `CC(=O)c1cnc(Oc2ccc(C3(c4ccc(OC5CC(Nc6ccc7c(c6)C(=O)N(C6CCC(=O)NC6=O)C7=O)C5)cc4)CCCC3)cc2)cn1` (stereo not drawn) [Example 177, 5-(((1r,3r)-3-(4-(1-(4-((5-acetylpyrazin-2-yl)oxy)phenyl)cyclopentyl)phenoxy)cyclobutyl)amino)-2-(2,6-dioxopiperidin-3-yl)isoindolin-1,3-dione], for which the DC50 in assay [1] is under 10 nM. Besides, in assay [2], the negative-log IC50 (pIC50) is 8.70.

For `C[C@@H](O)c1cnc(Oc2ccc(C3(c4ccc(OC5CC(Nc6ccc7c(c6)C(=O)N(C6CCC(=O)NC6=O)C7=O)C5)cc4)CCCC3)cc2)cn1` (stereo partly drawn) [Example 178, 2-(2,6-dioxopiperidin-3-yl)-5-(((1r,3r)-3-(4-(1-(4-((5-(1-hydroxylethyl)pyrazin-2-yl)oxy)phenyl)cyclopentyl)phenoxy)cyclobutyl)amino) isoindolin-1,3-dione], in assay [1], the half-maximal degradation concentration (DC50) is under 10 nM. The negative-log IC50 (pIC50) in assay [2] was 8.30.

Consider `CN(C)C(=O)c1noc(COc2ccc(C(C)(C)c3ccc(OCCCNc4cccc5c4C(=O)N(C4CCC(=O)NC4=O)C5=O)cc3)cc2)n1` (stereo not drawn) [Example 181, 5-((4-(2-(4-(3-((2-(2,6-dioxopiperidin-3-yl)-1,3-dioxoisoindolin-4-yl)amino)propoxy)phenyl)propan-2-yl)phenoxy)methyl)-N,N-dimethyl-1,2,4-oxadiazol-3-carbonylamine], for which, in assay [1], the DC50 is 1000 to 5000 nM. The IC50 in assay [2] is 140 nM.

For `CC(C)(c1ccc(OCCCNc2ccc3c(c2)C(=O)N(C2CCC(=O)NC2=O)C3=O)cc1)c1ccc(OCc2ccnc(C(N)=O)n2)cc1` (stereo not drawn) [Example 182, 4-((4-(2-(4-(3-((2-(2,6-dioxopiperidin-3-yl)-1,3-dioxoisoindolin-5-yl)amino)propoxy)phenyl)propan-2-yl)phenoxy)methyl)pyrimidin-2-carbonylamine], the DC50 in assay [1] lay in the range of 11 to 100 nM. For the same molecule, the IC50 in assay [2] is 50 nM.

Molecule `CC(C)(c1ccc(OCCCNc2ccc3c(c2)C(=O)N(C2CCC(=O)NC2=O)C3=O)cc1)c1ccc(OCc2nc(CO)co2)cc1` (stereo not drawn) [Example 185, 2-(2,6-dioxopiperidin-3-yl)-5-((3-(4-(2-(4-((4-(hydroxylmethyl)oxazol-2-yl)methoxy)phenyl)propan-2-yl)phenoxy)propyl)amino)isoindolin-1,3-dione] had a DC50 in assay [1] of 11 to 100 nM. The IC50 in assay [2] is 56 nM.

In the case of `CNC(=O)c1nccc(COc2ccc(C(C)(C)c3ccc(O[C@H]4C[C@H](Nc5ccc6c(c5)C(=O)N(C5CCC(=O)NC5=O)C6=O)C4)cc3)cc2)n1` (stereo partly drawn) [Example 186, 4-((4-(2-(4-((1r,3r)-3-((2-(2,6-dioxopiperidin-3-yl)-1,3-dioxoisoindolin-5-yl)amino)cyclobutyloxy)phenyl)propan-2-yl)phenoxy)methyl)-N-methylpyrimidin-2-carbonylamine], the 50% degradation concentration (DC50) in assay [1] lay in the range of 11 to 100 nM. Further, the IC50 in assay [2] worked out at 32 nM.

The molecule `CC(C)(c1ccc(O[C@H]2C[C@@H](Nc3ccc4c(c3)C(=O)N(C3CCC(=O)NC3=O)C4=O)C2)cc1)c1ccc(N2CCc3ncnc(N4CC5(COC5)C4)c3C2)cc1` (stereo partly drawn) [Example 194] displayed a half-maximal degradation concentration (DC50) in assay [1] of 11 to 100 nM. Besides, the IC50 in assay [2] stood at 33 nM.

As for `Cc1nccc(Oc2ccc(C(C)(C)c3ccc(O[C@H]4C[C@H](Nc5ccc6c(c5)C(=O)N(C5CCC(=O)NC5=O)C6=O)C4)cc3)cc2)n1` (stereo partly drawn) [Example 197], the 50% degradation concentration (DC50) in assay [1] is under 10 nM. For the same molecule, the IC50 in assay [2] is 5 nM.

As for `CC(C)(c1ccc(OCc2nc(N3CC4(COC4)C3)ncc2F)cc1)c1ccc(O[C@H]2C[C@H](Nc3ccc4c(c3)C(=O)N(C3CCC(=O)NC3=O)C4=O)C2)cc1` (stereo partly drawn) [Example 200], the DC50 in assay [1] was under 10 nM. The IC50 in assay [2] is 12 nM.

In the case of `Cc1cnc(N2CC3(COC3)C2)nc1COc1ccc(C(C)(C)c2ccc(O[C@H]3C[C@H](Nc4ccc5c(c4)C(=O)N(C4CCC(=O)NC4=O)C5=O)C3)cc2)cc1` (stereo partly drawn) [Example 204], the half-maximal degradation concentration (DC50) in assay [1] is under 10 nM. For the same molecule, in assay [2], the IC50 was 6 nM.

With `CC(C)(c1ccc(Oc2ccc(-n3ccnn3)nc2)cc1)c1ccc(O[C@H]2C[C@H](Nc3ccc4c(c3)C(=O)N(C3CCC(=O)NC3=O)C4=O)C2)cc1` (stereo partly drawn) [Example 207, 5-((1r,3r)-3-(4-(2-(4-((6-(1H-1,2,3-triazol-1-yl)pyridin-3-yl)oxy)phenyl)propan-2-ylphenoxy)cyclobutyl)amino)-2-(2,6-dioxopiperidin-3-yl) isoindolin-1,3-dione], the half-maximal degradation concentration (DC50) in assay [1] is under 10 nM. Besides, the half-inhibitory concentration (IC50) in assay [2] amounted to 16 nM.

For the molecule `CC(C)(c1ccc(Oc2cnnc(-n3nccn3)c2)cc1)c1ccc(O[C@H]2C[C@H](Nc3ccc4c(c3)C(=O)N(C3CCC(=O)NC3=O)C4=O)C2)cc1` (stereo partly drawn) [Example 217], the 50% degradation concentration (DC50) in assay [1] was under 10 nM. Moreover, the IC50 in assay [2] was 15 nM.

For `Cc1nnc(-c2cnnc(Oc3ccc(C(C)(C)c4ccc(O[C@H]5C[C@H](Nc6ccc7c(c6)C(=O)N(C6CCC(=O)NC6=O)C7=O)C5)cc4)cc3)c2)o1` (stereo partly drawn) [Example 218], the DC50 in assay [1] is under 10 nM. Further, in assay [2], the IC50 is 6 nM.

With `CC(O)c1ncc(Oc2ccc(C(C)c3ccc(O[C@H]4C[C@H](Nc5ccc6c(c5)C(=O)N(C5CCC(=O)NC5=O)C6=O)C4)cn3)cc2)cn1` (stereo partly drawn) [Example 219], the DC50 in assay [1] is under 10 nM. The IC50 in assay [2] came to 6 nM.

Consider `CC(=O)c1ncc(Oc2ccc(C(C)c3ccc(O[C@H]4C[C@H](Nc5ccc6c(c5)C(=O)N(C5CCC(=O)NC5=O)C6=O)C4)cn3)cc2)cn1` (stereo partly drawn) [Example 220], for which the DC50 in assay [1] was under 10 nM. In assay [2], the IC50 was 8 nM.
